Six compounds from ChEMBL document CHEMBL6153105, “MDN-0057 to MDN-0060, a Family of Broad-Spectrum Antibiotics against Gram-Negative Pathogens Produced by Ophiosphaerella korrae” (2025) can be followed below.

≈ marks a conversion by molar mass, not a printed value.

Holding throughout (type): functional
The test system of experiment [1] is Acinetobacter baumannii. The experiment is described as follows: Antibacterial activity against Acinetobacter baumannii MB5973 incubated for 20 hrs.
In experiment [2] the test system is Pseudomonas aeruginosa. The experiment can be described thus: Antibacterial activity against Pseudomonas aeruginosa ATCC 27853 incubated for 20 hrs.
Experiment [3] concerns Escherichia coli. The experiment is described as follows: Antibacterial activity against Escherichia coli ATCC 25922 incubated for 20 hrs.

Usually MIC stands for the lowest concentration that inhibits growth of the organism. Higher therefore signals a need for much substance. For the compound `[C-]#[N+]C(=C)[C@](Cc1ccc(OC)cc1)([N+]#[C-])[C@H]1C[C@@H](O)CC[C@@H]1OC(C)=O`, the figures for the MIC in experiment [1] and in experiment [2] were 0.5 µg/mL (≈ 1.36 µM) and 16 µg/mL (≈ 43.4 µM), respectively.
`[C-]#[N+]C(=C)[C@](Cc1ccc(OC)cc1)([N+]#[C-])[C@H]1C[C@@H](O)CC[C@@H]1OC(=O)CO`: the MIC is 0.25 µg/mL (≈ 0.65 µM) in experiment [1], 2 µg/mL (≈ 5.2 µM) in experiment [2] and 16 µg/mL (≈ 41.6 µM) in experiment [3].
The like results for `[C-]#[N+]C(=C)[C@](Cc1ccc(OC)cc1)([N+]#[C-])[C@H]1C[C@@H](O)C=C[C@@H]1OC(=O)CO` were, in that order, 0.25 µg/mL (≈ 0.654 µM), 64 µg/mL (≈ 167 µM) and 16 µg/mL (≈ 41.8 µM).
As to `[C-]#[N+]C(=C)[C@](Cc1ccc(OC)cc1)([N+]#[C-])[C@H]1C[C@@H](O)C=C[C@@H]1OC(C)=O`, the figures for the MIC in experiment [1] and in experiment [2] were 1 µg/mL (≈ 2.73 µM) and 32 µg/mL (≈ 87.3 µM), respectively.
`C[C@H]1[C@H](NC(=O)/C(=N\OC(C)(C)C(=O)O)c2csc(N)n2)C(=O)N1S(=O)(=O)O` [AZTREONAM]: the MIC in experiment [3] was 0.25 µg/mL (≈ 0.574 µM).
In the case of `CO[C@H]1/C=C/O[C@@]2(C)Oc3c(C)c(O)c4c(O)c(c(/C=N/N5CCN(C)CC5)c(O)c4c3C2=O)NC(=O)/C(C)=C\C=C\[C@H](C)[C@H](O)[C@@H](C)[C@@H](O)[C@@H](C)[C@H](OC(C)=O)[C@@H]1C` [RIFAMPIN], in experiment [1], the lowest concentration to inhibit growth (MIC) was 2.5 µg/mL (≈ 3.04 µM).
